These results are taken from patent US8318801B2, “Cinnamic compounds and derivatives therefrom for the inhibition of histone deacetylase” (Naturewise Biotech & Medicals Corporation, priority 2009, dated 2012).

Test [1] relates to SMN2 protein in fibroblast cells derived from SMA patients. Particulars: after 64 hours of treatment; cited from earlier work.
The subject of test [2] is Human lung cancer A549 cells. The experiment in a line: Inhibition of cancer cell growth. Type of test: cell-based. Particulars: 72 hrs, NBM-C-BX-OS01 7.5, others 2.5, 5.0, 7.5 μg/mL (FIG. 5(b)). The method, then:
(§1) Three cancer cell lines, Rat C6 giloma cells, Human breast cancer MCF-7 cells, and Human lung cancer A549 cells, were cultured in Dulbecco's modified Eagle's medium (DMEM; Gibco) containing 10% fetal bovine serum (FBS) and 1% penicillin/streptomycin. All three cell lines were maintained at 37° C. in a humidified atmosphere of 95% air and 5% CO2. For the experiments, the cells were seeded in 6-well plates. After 24 hours, the cells were treated with different concentrations of the various compounds.
(§2) Five cancer cell lines, Rat C6 giloma cells, Human breast cancer MCF-7 cells, Human glioma Hs683 cells, Human glioblastoma 05-MG cells, and Human lung cancer A549 cells, were cultured in Dulbecco's modified Eagle's medium (DMEM; Gibco) containing 10% fetal bovine serum (FBS) and 1% penicillin/streptomycin, and were kept at 37° C. in a humidified atmosphere of 95% air and 5% CO2. Human breast cancer. MDA-MB-231 cells were cultured in L-15 medium (Gibco) containing 10% fetal bovine serum (FBS), 1% penicillin/streptomycin, and 2 mM glutamine, and were maintained at 37° C. in a humidified atmosphere of 95% air and 0% CO2. For these experiments, the cells were seeded in 6-well plates or a 60-mm dish. After 24 hours, the cells were treated with different concentrations of the various compounds. […] Human glioblastoma 05-MG cells were treated with NBM-C-BCX-OS01 (1.0, 2.0, 4.0 μg/mL) and NBM-C-BMX-OS01 (1.0, 2.0, 4.0 μg/mL) for 72 hours (see FIG. 5(e)). […] The results were counted by a trypan blue exclusion assay (see FIG. 6(b)).

Test [3] relates to acetyl-Histone H3, acetyl-Histone H4, acetyl-tubulin, p21, CTPS, Gelsolin, Hsp90, acetyl-Hsp90 in Human glioma Hs683 cells. Kind of test: Immunoblotting of histones and HDAC associated proteins. Type of test: cell-based. Conditions: Hs683 cells, 1.0, 2.0, 4.0 μg/mL. The method, then:
Human glioma Hs683 cells were seeded at 5×10^5 cells in a 60-mm dish or 1×10^6 cells in a 100-mm dish. After 24 hours, Human glioma Hs683 cells were treated with different doses of NBM-C-BCX-OS01, NBM-C-BMX-OS01 (1.0, 2.0, 4.0 μg/mL), and vorinostat (SAHA, 5 μM) for 72 hours. Lysates of Hs683 cells were prepared for the immunoblotting of acetyl-Histone H3 (Cell Signaling Technology, Inc.), acetyl-Histone H4 (Upstate), acetyl-tubulin (Sigma Chemical Co.), p21 (BD Pharmingen Technology, Inc.), CTPS (ABNOVA TAIWAN Corporation), Gelsolin (Sigma Chemical Co.), Hsp90 (Cell Signaling Technology, Inc.), acetyl-Hsp90 (ROCKLAND, Inc.) and actin (Sigma Chemical Co.). Proteins were detected by chemiluminescence (ECL, Amersham). […] SAHA was used as a positive control and β-actin as an internal control (see FIG. 7(b)).

The subject of test [4] is Human glioma Hs683 cells. Kind of test: Inhibition of cancer cell growth. It counts as cell-based. Particulars: Hs683 cells, 1.25, 2.5, 5.0 μg/mL, 72 hrs (FIG. 5(d)). On the procedure:
Their results were counted by a trypan blue exclusion assay (see FIG. 8(e)).
as §2

In test [5] the test system is Rat C6 glioma cells. Kind of test: Inhibition of cancer cell growth and change of morphology. It counts as cell-based. Particulars: Rat C6 glioma cells. The method, then: as §1, §2
In test [6] the test system is human breast cancer MDA-MB-231 cells. The test is described as above. Type of test: cell-based. Conditions: MDA-MB-231 cells. The method, then:
Their results were counted by a trypan blue exclusion assay (see FIG. 9(f)).
as §2

Test [7] deals with Human glioma Hs683 cells. The experiment in a line: Cell cycle analysis by flow cytometry (propidium iodide). It counts as cell-based. Particulars: Hs683 cells, 1.0, 2.0, 4.0 μg/mL, 72 hrs (FIG. 6(e)). The method, then: Human lung cancer A549 cells, Human glioma Hs683 cells and Human glioblastoma 05-MG cells were seeded 1×10^6 cells in a 100-mm dish. After 24 hours of incubation in DMEM+10% BSA, Human lung cancer A549 cells were treated with NBM-HB-OS01 (2.5, 5.0, 7.5, 10.0 μg/mL) for 24 hours and were treated with NBM-C-BCX-OS01 (2.5, 5.0, 7.5 μg/mL) and NBM-C-BMX-OS01 (2.5, 5, 7.5 μg/mL) for 72 hours. Human glioblastoma 05-MG cells were treated with NBM-C-BCX-OS01 (1.0, 2.0, 4.0 μg/mL) and NBM-C-BMX-OS01 (1.0, 2.0, 4.0 μg/mL) for 72 hours. Human glioma Hs683 cells were treated with NBM-C-BCX-OS01 (1.0, 2.0, 4.0 μg/mL). For cell cycle analysis, cells were fixed in 80% ethanol for 1 hour (or overnight) at −20° C. and then incubated with 2 μg/mL RNase A for 30 minutes at 37° C. Cells were stained with propidium iodide ([…] PI) in PBS and analyzed using a Becton Dickinson flow cytometer, BD FACScan and CellQuest acquisition and analysis programs. […] Human glioma Hs683 cells were treated with NBM-C-BCX-OS01 (1.0, 2.0, 4.0 μg/mL) for 72 hours.
In general terms: Flow cytometry measures light scatter and fluorescence of single cells or particles in a stream.

The subject of test [8] is Human glioblastoma 05-MG cells. The experiment in a line: Inhibition of cancer cell growth. It counts as cell-based. Particulars: 05-MG cells, 1.0, 2.0, 4.0 μg/mL, 72 hrs (FIG. 5(e)). The method, then: as §2
For test [9], the system named is cyclin D1 in MCF-7 breast cancer cells. Particulars: cited from earlier work.
The subject of test [10] is transgenic mouse model of spinal and bulbar muscular atrophy. Particulars: cited from earlier work.

“Also recorded” adds a separate entry of the source.

For `CN(C)c1ccc(C(=O)NCCCCCCC(=O)NO)cc1` [M344], the “up-regulation of SMN2 protein expression” value in test [1] was “up to 7 fold”.

Turning to `COc1ccc(/C=C\C(=O)NO)c(OCc2ccc(Cl)cc2)c1CC=C(C)C` [NBM-C-BCX-OS01, (Z)-2-(4-Chlorobenzoxy)-3-prenyl-4-methoxy-N-hydroxycinamide], in [2], the cell growth inhibition result was “induced A549 cells growth inhibition in a dose-dependent manner; also recorded: induced A549 cell growth inhibition in dose-dependent amounts”. For the same compound, in test [3] (72 hrs (FIG. 7(a))), the CTPS protein level result is “decreased in a dose-dependent manner”, the Hsp90 protein level entry is recorded as “decreased in a dose-dependent manner”, the “induction (increase) of acetylated Hsp90 protein” value is reported as “detected in a dose-dependent manner; also recorded: observed in a dose-dependent manner” and the “induction (increase) of gelsolin protein” value was “detected in a dose-dependent manner; also recorded: observed in a dose-dependent manner”. In test [3] (72 hrs (FIG. 7(b))), the “expression of acetylated Histone H3” value is reported as “significantly increased in a dose-dependent manner; also recorded: induced in a dose-dependent manner”, the “expression of acetylated Histone H4” value is on record as “significantly increased in a dose-dependent manner; also recorded: induced in a dose-dependent manner”, the “expression of acetylated tubulin” value was “significantly increased in a dose-dependent manner; also recorded: induced in a dose-dependent manner” and the “expression of p21” value is listed as “significantly increased in a dose-dependent manner; also recorded: induced in a dose-dependent manner”. Also, in [4], the cell growth inhibition result was “Cell growth inhibition was observed”. In addition, in test [5] (24 hrs, NBM-C-BA-OS01 5 μg/mL, others 2.5, 5.0 μg/mL (FIG. 5(a))), the “inhibition of cell growth” value is “inhibited the cell growth”. Moreover, the “inhibition of cell growth, similar to dose-dependent A549 result” value in test [5] (various concentrations, 24 hrs (FIG. 5(c))) was “the results were similar”. In addition, the “change of cell morphology” value in test [6] (72 hours (FIG. 6(a))) is reported as “changed the morphology of the cells”. Besides, the “inhibition of cell growth” value in test [6] (various concentrations, 72 hrs (FIG. 6(a))) is “inhibition of the cell growth of human breast cancer MDA-MB-231 cells was observed; also recorded: inhibited the growth”. The “growth arrest in cell cycle analysis” value in test [7] is “arrested the growth; also recorded: could arrest the growth”. For the same compound, the cell growth inhibition entry in test [8] is recorded as “Cell growth inhibition was observed”.

For the compound `CC(/C=C/C(=O)NO)=C\[C@@H](C)C(=O)c1ccc(N(C)C)cc1` [Trichostatin A], the “ubiquitin-dependent cyclin D1 degradation” value in test [9] is on record as “induce ubiquitin-dependent cyclin D1 degradation”.

Take `CCCC(=O)[O-].[Na+]` [sodium butyrate]: in [10], the “effect on phenotypic expression” value is “ameliorates phenotypic expression”.
